Test [1] concerns the target T1, Epidermal growth factor receptor (Homo sapiens, UniProt P00533).
Target sequence in this assay (P00533 whole entry): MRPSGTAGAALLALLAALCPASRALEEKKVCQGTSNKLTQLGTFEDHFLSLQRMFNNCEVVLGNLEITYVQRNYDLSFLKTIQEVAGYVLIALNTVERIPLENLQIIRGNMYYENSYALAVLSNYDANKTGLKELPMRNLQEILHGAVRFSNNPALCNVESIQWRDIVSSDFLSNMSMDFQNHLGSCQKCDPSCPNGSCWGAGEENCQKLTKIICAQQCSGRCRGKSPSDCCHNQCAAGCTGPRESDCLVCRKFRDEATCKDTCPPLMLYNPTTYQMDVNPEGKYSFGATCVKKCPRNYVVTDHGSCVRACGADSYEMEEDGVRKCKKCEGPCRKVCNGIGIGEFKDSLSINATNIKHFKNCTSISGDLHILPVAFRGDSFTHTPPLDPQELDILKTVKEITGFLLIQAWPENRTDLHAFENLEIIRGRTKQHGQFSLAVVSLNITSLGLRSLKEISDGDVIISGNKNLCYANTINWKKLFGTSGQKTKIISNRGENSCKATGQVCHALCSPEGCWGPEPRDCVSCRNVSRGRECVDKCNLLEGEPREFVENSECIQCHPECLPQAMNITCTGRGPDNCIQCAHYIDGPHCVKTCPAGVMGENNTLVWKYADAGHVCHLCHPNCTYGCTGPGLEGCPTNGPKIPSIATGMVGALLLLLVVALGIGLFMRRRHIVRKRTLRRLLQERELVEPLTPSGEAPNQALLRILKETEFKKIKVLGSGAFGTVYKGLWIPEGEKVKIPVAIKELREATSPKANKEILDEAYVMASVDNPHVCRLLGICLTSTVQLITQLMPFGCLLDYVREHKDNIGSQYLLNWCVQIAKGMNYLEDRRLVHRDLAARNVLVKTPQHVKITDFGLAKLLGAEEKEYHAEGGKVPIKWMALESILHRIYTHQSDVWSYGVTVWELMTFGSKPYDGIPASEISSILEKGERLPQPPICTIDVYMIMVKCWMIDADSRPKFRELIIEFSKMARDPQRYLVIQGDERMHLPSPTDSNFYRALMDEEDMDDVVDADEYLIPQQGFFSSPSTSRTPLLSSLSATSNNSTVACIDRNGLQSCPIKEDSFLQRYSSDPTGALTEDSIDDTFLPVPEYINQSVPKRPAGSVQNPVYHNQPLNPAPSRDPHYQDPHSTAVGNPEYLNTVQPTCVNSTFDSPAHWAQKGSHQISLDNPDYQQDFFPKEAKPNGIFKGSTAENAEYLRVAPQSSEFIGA
Description: Inhibition of wildtype EGFR (unknown origin) preincubated for 30 mins followed by addition of 2x ATP-substrate mixture measured after 1 hr by Kinase Glo luminescent kinase assay
In test [2] the target is T1, Epidermal growth factor receptor. The format is protein assay.
Target sequence in this assay (P00533 25-1210 limits assumed, change not shown): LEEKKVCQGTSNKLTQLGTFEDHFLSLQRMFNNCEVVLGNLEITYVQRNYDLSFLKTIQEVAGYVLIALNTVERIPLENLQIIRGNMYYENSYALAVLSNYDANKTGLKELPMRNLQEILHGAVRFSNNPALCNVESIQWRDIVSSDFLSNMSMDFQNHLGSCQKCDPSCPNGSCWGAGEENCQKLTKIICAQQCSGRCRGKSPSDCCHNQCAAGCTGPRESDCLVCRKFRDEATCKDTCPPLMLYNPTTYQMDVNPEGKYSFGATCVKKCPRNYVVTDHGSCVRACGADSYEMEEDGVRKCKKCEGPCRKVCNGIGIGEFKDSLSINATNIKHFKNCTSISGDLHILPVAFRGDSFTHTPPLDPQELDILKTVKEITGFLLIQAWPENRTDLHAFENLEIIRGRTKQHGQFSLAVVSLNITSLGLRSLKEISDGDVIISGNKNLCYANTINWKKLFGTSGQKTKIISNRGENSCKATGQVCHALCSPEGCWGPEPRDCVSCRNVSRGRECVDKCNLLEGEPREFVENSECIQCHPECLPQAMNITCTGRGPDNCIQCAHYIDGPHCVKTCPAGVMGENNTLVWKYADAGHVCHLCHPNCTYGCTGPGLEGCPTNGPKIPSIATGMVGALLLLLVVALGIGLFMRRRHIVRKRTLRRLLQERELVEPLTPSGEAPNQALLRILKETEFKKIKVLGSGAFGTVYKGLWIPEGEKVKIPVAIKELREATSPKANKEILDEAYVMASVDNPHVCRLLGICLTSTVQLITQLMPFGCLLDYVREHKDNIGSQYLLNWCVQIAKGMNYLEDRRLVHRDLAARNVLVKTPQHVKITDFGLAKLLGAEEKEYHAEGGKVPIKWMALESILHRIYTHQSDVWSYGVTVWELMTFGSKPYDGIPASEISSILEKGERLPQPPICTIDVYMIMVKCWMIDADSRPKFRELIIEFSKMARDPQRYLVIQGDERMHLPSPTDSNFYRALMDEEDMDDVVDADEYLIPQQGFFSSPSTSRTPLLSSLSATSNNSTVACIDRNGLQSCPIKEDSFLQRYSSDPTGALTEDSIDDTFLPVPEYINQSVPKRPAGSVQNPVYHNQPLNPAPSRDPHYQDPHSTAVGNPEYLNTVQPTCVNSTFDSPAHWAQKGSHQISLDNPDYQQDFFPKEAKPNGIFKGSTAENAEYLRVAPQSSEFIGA
Description: Inhibition of EGFR-T790M/L858 mutant (unknown origin) preincubated for 30 mins followed by addition of 2x ATP-substrate mixture measured after 1 hr by Kinase Glo luminescent kinase assay
For test [3], the system named is NCI-H358. Nature of the test: cells. The conditions noted are these: Homo sapiens, NCI-H358, 48 h. The format is functional, cell-based.
Description: Antiproliferative activity against human NCI-H358 cells assessed as viable cells after 48 hrs by CCK8 assay
The test system of test [4] is A549. Kind of test: cells. In kind it is functional, cell-based. The conditions noted are these: Homo sapiens, A549, 48 h.
Description: Antiproliferative activity against human A549 cells assessed as viable cells after 48 hrs by CCK8 assay

The molecule `Cc1cccc(Nc2ncnc3cc4c(cc23)N(CCCN2CCCCC2)C(=O)CO4)c1` showed an IC50 in test [1] of 456 nM. This counts as sub-micromolar.

With `C#Cc1cccc(Nc2ncnc3cc4c(cc23)N(CCCN2CCCCC2)C(=O)CO4)c1`, the IC50 in test [1] was found to be 211 nM.

Molecule `Cc1cccc(Nc2ncnc3cc4c(cc23)N(CCCN2CCOCC2)C(=O)CO4)c1` showed an IC50 in test [1] of 187 nM. This IC50 and that of the molecule before are within 1.5-fold of each other.

As for `O=C1COc2cc3ncnc(Nc4ccc(F)c(Cl)c4)c3cc2N1CCCN1CCOCC1`, the concentration for half-maximal inhibition (IC50) amounted to 53.1 nM in test [1], 336 nM in test [2], 13500 nM in test [3] and 7510 nM in test [4].

As to `Cc1ccc(Nc2ncnc3cc4c(cc23)N(CCCN2CCOCC2)C(=O)CO4)cc1Cl`, half-maximal inhibition in test [1] (IC50) required 163 nM.

Regarding `O=C1COc2cc3ncnc(Nc4ccc(F)c(Cl)c4)c3cc2N1CCCN1CCCCC1`, in test [1], it took 138 nM to reach half-maximal inhibition (IC50).

In turn, `O=C1COc2cc3ncnc(Nc4cccc(Br)c4)c3cc2N1CCCN1CCOCC1` yielded an IC50 in test [1] of 89.6 nM.

The molecule `O=C1COc2cc3ncnc(Nc4cccc(F)c4)c3cc2N1CCCN1CCOCC1` returned an IC50 in test [1] of 245 nM. This IC50 lies about 2.7-fold higher than the previous one.

The molecule `Cc1ccc(Nc2ncnc3cc4c(cc23)N(CCCN2CCOCC2)C(=O)CO4)cc1` gave an IC50 in test [1] of 594 nM.

`O=C1COc2cc3ncnc(Nc4cccc(C(F)(F)F)c4)c3cc2N1CCCN1CCOCC1` displayed an IC50 in test [1] of 829 nM.

In turn, `O=C1COc2cc3ncnc(Nc4cccc(Cl)c4)c3cc2N1CCCN1CCOCC1` returned an IC50 in test [1] of 63.1 nM.

The molecule `COc1cccc(Nc2ncnc3cc4c(cc23)N(CCCN2CCOCC2)C(=O)CO4)c1` came in with an IC50 in test [1] of more than 1000 nM.

In the case of `O=C1COc2cc3ncnc(Nc4cccc(Cl)c4)c3cc2N1CCCN1CCCCC1`, the IC50 in test [1] came to 116 nM.

For the molecule `COc1ccc(Nc2ncnc3cc4c(cc23)N(CCCN2CCOCC2)C(=O)CO4)cc1OC`, the half-inhibitory concentration (IC50) in test [1] was more than 1000 nM.

For `C#Cc1cccc(Nc2ncnc3cc4c(cc23)N(CCCN2CCOCC2)C(=O)CO4)c1`, the IC50 in test [1] was 139 nM; in test [2] it was 880 nM; in test [3], 13500 nM; in test [4], 5580 nM.

`O=C1COc2cc3ncnc(Nc4ccc(Cl)cc4)c3cc2N1CCCN1CCOCC1` yielded an IC50 in test [1] of 354 nM.

On to `O=C1COc2cc3ncnc(Nc4ccc(F)cc4)c3cc2N1CCCN1CCOCC1`, for which the midpoint of inhibition in test [1], the IC50, lay at 434 nM.

The molecule `O=C1COc2cc3ncnc(Nc4ccc(Br)cc4)c3cc2N1CCCN1CCOCC1` had an IC50 in test [1] of 824 nM.

Consider `O=C1COc2cc3ncnc(Nc4cccc(Br)c4)c3cc2N1CCCN1CCCCC1`, for which, in test [1], it took 99 nM to reach half-maximal inhibition (IC50). This IC50 lies about 8.3-fold lower than the previous one.

For the molecule `O=C1COc2cc3ncnc(Nc4ccccc4)c3cc2N1CCCN1CCOCC1`, the 50% inhibitory concentration (IC50) in test [1] was 519 nM.

These data come from ChEMBL document CHEMBL3774304, “Novel morpholin-3-one fused quinazoline derivatives as EGFR tyrosine kinase inhibitors” (Bioorg Med Chem Lett, 2016).
